From US11976334B2, “Inhibitor of ATR kinase for use in a method of treating a hyper-proliferative disease” (Bayer Aktiengesellschaft, priority 2017, dated 2024)

Assays:
[1] = system: LNCaP human prostate cancer cells; test: Proliferation of LNCaP cells (CellTiter-Glow); assay type: cell-based; conditions: 144 h, R1881 1 nM, day 6, read-out: in vitro (IC50, nM), inhibition of tumor cell proliferation
Method: They were plated in RPMI1640 medium without phenol red+10% charcoal-stripped FCS at 600 cells/well in a 384-well white plate. […] Cell number was determined by CellTiter-Glow (Promega) at day 0 and day 6. Luminescence was determined in Victor X3. The inhibition of cell growth was calculated by normalization with respect to the fluorescence reading (cell number) measured at the end of the experiment for cells treated with R1881 alone compared to the fluorescence reading (cell number) measured at the start of the experiment for DMSO-treated cells.

[2] = system: 22RV1 human prostate cancer cells; test: Proliferation of 22Rv1 cells (crystal violet); assay type: cell-based; conditions: 96 h, 22Rv1, Prostate, 4 days, read-out: in vitro (IC50, nM), inhibition of tumor cell proliferation
Method: (§1) 22RV1 human prostate cancer cells were obtained from the American Type Culture Collection (ATCC CRL-2505). They were plated in RPMI1640 medium supplemented with 10% FCS at 5000 cells/well in a 96-well microtiter plate. After 24 h, the cells from one microtiter plate were stained with crystal violet (==>0 plate), whereas the cells in the test plates were exposed continuously for 4 days to test substances. Cell proliferation was determined by staining with crystal violet. The absorbance was determined photometrically at 595 nm using a Tecan Sunrise instrument.

[3] = system: VCaP human prostate cancer cells; test: Proliferation of VCaP cells (Alamar Blue); assay type: cell-based; conditions: 168 h, day 7, read-out: in vitro (IC50, nM), inhibition of tumor cell proliferation
Method: VCaP human prostate cancer cells were obtained from the VTT Technical Research Center (Finland). They were plated in DMEM medium (DMEM=Dulbecco's Modified Eagle Medium) with stable glutamine+10% FCS at 16000 cells/well in a 96-well microtiter plate. […] Cell number was determined by Alamar Blue staining (2 h) at day 0 and day 7. Fluorescence was determined in a Victor X3 device (excitation 530 nm; emission 590 nm). The inhibition of cell growth was calculated by normalization with respect to the fluorescence reading (cell number) measured at the end of the experiment for cells treated with R1881 alone compared to the fluorescence reading (cell number) measured at the start of the experiment for DMSO-treated cells.

[4] = system: LAPC-4 human prostate cancer cells; test: Proliferation of LAPC-4 cells (Alamar Blue); assay type: cell-based; conditions: 168 h, LapC4, Prostate, R1881 1 nM, day 7, read-out: in vitro (IC50, nM), inhibition of tumor cell proliferation
Method: LAPC-4 human prostate cancer cells were obtained from the VTT Technical Resarch Center (Finland). They were plated in RPMI 1640 (RPMI=Roswell Park Memorial Institute) medium without phenol red+10% charcoal-stripped FCS (FCS=Fetal Calf Serum)+2 mM L-Glutamine at 4000 cells/well in a 96-well microtiter plate. […] Cell number was determined by Alamar Blue staining (2 h) at day 7. Fluorescence was determined in a Victor X3 device (excitation 530 nm; emission 590 nm). The inhibition of cell growth was calculated by normalization with respect to the fluorescence reading (cell number) measured at the end of the experiment for cells treated with R1881 alone compared to the fluorescence reading (cell number) measured at the end of the experiment for DMSO-treated cells.

[5] = system: PC-3 human prostate cancer cells; test: Proliferation of PC-3 cells (crystal violet); assay type: cell-based; conditions: PC-3, 96 h, PC3, Prostate, 4 days, read-out: in vitro (IC50, nM), inhibition of tumor cell proliferation
Method: as §1, with “PC-3” for “22RV1”, “DSMZ-German” for “American Type Culture”, “of Microorganisms and Cell Cultures (Germany) (DSMZ ACC-465).” for “(ATCC CRL-2505).”, “DMEM/Ham's F12” for “RPMI1640”, “medium” for “medium supplemented”, “stable Glutamine+10%” for “10%”

C4-2B = test: Tumor cell proliferation, C4-2B (crystal violet); assay type: cell-based; conditions: Homo sapiens, 96 h, Prostate, 4 days, read-out: in vitro (IC50, nM), inhibition of tumor cell proliferation
Excerpt: (§2) All measurements were done in quadruplicates.

HCC70 = test: Tumor cell proliferation, HCC70 (crystal violet); assay type: cell-based; conditions: Homo sapiens, 96 h; HCC70, Breast; 4 days; read-out: in vitro (IC50, nM), inhibition of tumor cell proliferation
Excerpt: as §2

HT29 = test: Tumor cell proliferation, HT29 (crystal violet); assay type: cell-based; conditions: Homo sapiens, HT-29, 96 h; HT29, Colorectal; 4 days; read-out: in vitro (IC50, nM), inhibition of tumor cell proliferation
Excerpt: as §2

U-87MG = test: Tumor cell proliferation, U-87MG (crystal violet); assay type: cell-based; conditions: Homo sapiens, 96 h, Glioblastoma, 4 days, read-out: in vitro (IC50, nM), inhibition of tumor cell proliferation
Excerpt: as §2

M059J = test: Tumor cell proliferation, M059J (crystal violet); assay type: cell-based; conditions: Homo sapiens, 96 h, Glioblastoma, 4 days, read-out: in vitro (IC50, nM), inhibition of tumor cell proliferation
Excerpt: as §2

NCI-H2030 = test: Tumor cell proliferation, NCI-H2030 (crystal violet); assay type: cell-based; conditions: Homo sapiens, 96 h; NCI-H2030, Lung; 4 days; read-out: in vitro (IC50, nM), inhibition of tumor cell proliferation
Excerpt: as §2

NCI-H23 = test: Tumor cell proliferation, NCI-H23 (crystal violet); assay type: cell-based; conditions: Homo sapiens, 96 h; NCI-H23, Lung; 4 days; read-out: in vitro (IC50, nM), inhibition of tumor cell proliferation
Excerpt: as §2

A549 = test: Tumor cell proliferation, A549 (crystal violet); assay type: cell-based; conditions: Homo sapiens, 96 h; A549, Lung; 4 days; read-out: in vitro (IC50, nM), inhibition of tumor cell proliferation
Excerpt: as §2

SU-DHL-8 = test: Tumor cell proliferation, SU-DHL-8 (Cell Titer Glo); assay type: cell-based; conditions: Homo sapiens, 96 h; SU-DHL-8, Lymphoma, B cell; 4 days; read-out: in vitro (IC50, nM), inhibition of tumor cell proliferation
Method: (§3) Non-adherent growing GRANTA-519, Jeko-1, JVM-2, NCI-H929, Rec-1 and SU-DHL-8 cells were seeded in 150 μl of growth medium at 4000 cells/well (NCI-H929, 5000 cells/well) in 96-well microtiter plates and incubated for 24 h at 37° C. […] All measurements were done in quadruplicates.

TMD-8 = test: Tumor cell proliferation, TMD-8; assay type: cell-based; conditions: Homo sapiens, TMD8, 96 h; TMD-8, Lymphoma, B cell; 4 days; read-out: in vitro (IC50, nM), inhibition of tumor cell proliferation
Excerpt: as §2

REC-1 = test: Tumor cell proliferation, REC-1 (Cell Titer Glo); assay type: cell-based; conditions: Homo sapiens, Rec1, 96 h; REC-1, Lymphoma, mantle cell; 4 days; read-out: in vitro (IC50, nM), inhibition of tumor cell proliferation
Method: as §3

Jeko-1 = test: Tumor cell proliferation, Jeko-1 (Cell Titer Glo); assay type: cell-based; conditions: Homo sapiens, 96 h; Jeko-1, Lymphoma, mantle cell; 4 days; read-out: in vitro (IC50, nM), inhibition of tumor cell proliferation
Method: as §3

GRANTA-519 = test: Tumor cell proliferation, GRANTA-519 (Cell Titer Glo); assay type: cell-based; conditions: Homo sapiens, 96 h; GRANTA-519, Lymphoma, mantle cell; 4 days; read-out: in vitro (IC50, nM), inhibition of tumor cell proliferation
Method: as §3

JVM-2 = test: Tumor cell proliferation, JVM-2 (Cell Titer Glo); assay type: cell-based; conditions: Homo sapiens, 96 h; JVM-2, Lymphoma, mantle cell; 4 days; read-out: in vitro (IC50, nM), inhibition of tumor cell proliferation
Method: as §3

HT-144 = test: Tumor cell proliferation, HT-144 (crystal violet); assay type: cell-based; conditions: Homo sapiens, 96 h; HT-144, Melanoma; 4 days; read-out: in vitro (IC50, nM), inhibition of tumor cell proliferation
Excerpt: as §2

SK-OV-3 = test: Tumor cell proliferation, SK-OV-3 (crystal violet); assay type: cell-based; conditions: Homo sapiens, 96 h; SK-OV-3, Ovarian; 4 days; read-out: in vitro (IC50, nM), inhibition of tumor cell proliferation
Excerpt: as §2

BxPC3 = test: Tumor cell proliferation, BxPC3 (crystal violet); assay type: cell-based; conditions: Homo sapiens, BXPC-3, 96 h; BxPC3, Pancreas; 4 days; read-out: in vitro (IC50, nM), inhibition of tumor cell proliferation
Excerpt: as §2

AsPc-1 = test: Tumor cell proliferation, AsPc-1 (crystal violet); assay type: cell-based; conditions: Homo sapiens, ASPC1, 96 h; AsPc-1, Pancreas; 4 days; read-out: in vitro (IC50, nM), inhibition of tumor cell proliferation
Excerpt: as §2

MIAPaCa2 = test: Tumor cell proliferation, MIAPaCa2 (crystal violet); assay type: cell-based; conditions: Homo sapiens, MIA PaCa-2, 96 h; MIAPaCa2, Pancreas; 4 days; read-out: in vitro (IC50, nM), inhibition of tumor cell proliferation
Excerpt: as §2

DLD-1 parental = test: Isogenic tumor cell line proliferation, DLD-1 parental; assay type: cell-based; conditions: Homo sapiens, 168 h, Colorectal, 7 days, CTG, read-out: in vitro (IC50, nM), inhibition of isogenic tumor cell line proliferation
Method: (§4) The isogenic DLD-1 cell lines DLD-1 parental, DLD-1 BRCA2 (−/−) and DLD-1 ATM (−/−) (see Table 3: Test systems) were seeded in RPMI 1640 (RPMI=Roswell Park Memorial Institute) medium without phenol red+10% charcoal-stripped FCS (FCS=Fetal Calf Serum)+2 mM L-Glutamine+25 mM Sodium Bicarbonate at 2,500 cells/well in a 96-well microtiter plate. […] All measurements were done in quadruplicates.

DLD-1 BRCA2 (−/−) = test: Isogenic tumor cell line proliferation, DLD-1 BRCA2 (−/−); assay type: cell-based; conditions: Homo sapiens, 168 h, BRCA2 deficiency, 7 days, CTG, read-out: in vitro (IC50, nM), inhibition of isogenic tumor cell line proliferation
Method: as §4

[6] = system: A2780 xenograft (ovarian); conditions: mouse, in vivo, po, 50 mg/kg
Method: (§5) For this purpose, mice were implanted subcutaneously with tumor cells. […] The oral application volume was 10 ml/kg. The time interval between two applications per day was 6-7 h. […] The tumor size and the body weight were determined three times weekly. Changes in the body weight were a measure of treatment-related toxicity (>10%=critical, stop of treatment until recovery, >20%=toxic, termination). The tumor area was detected by means of an electronic caliper gauge [length (mm)×width (mm)]. In vivo anti-tumor efficacy is presented as T/C ratio (Treatment/Control) calculated with tumor areas at study end by the formula [(tumor area of treatment group at day x)−(tumor area of treatment group at day before first treatment)]/[(tumor area of control group at day x)−(tumor area of control group at day before first treatment)]. […] Statistical analysis was assessed using SigmaStat software. A one-way analysis of variance was performed and differences to the control were compared by a pair-wise comparison procedure (Dunn's method).

[7] = system: LOVO xenograft (colorectal cancer); conditions: mouse, in vivo, po, 50 mg/kg
Method: as §5

PC3 xenograft (prostate) = conditions: mouse, in vivo, po, 50 mg/kg
Method: as §5

[8] = system: REC-1 xenograft (mantle cell lymphoma); conditions: mouse, in vivo, po, 50 mg/kg
Method: as §5

## C[C@@H]1COCCN1c1cc(-c2ccnn2C)c2ccnc(-c3ccn[nH]3)c2n1 [Compound A, 2-[(3R)-3-methylmorpholin-4-yl]-4-(1-methyl-1H-pyrazol-5-yl)-8-(1H-pyrazol-5-yl)-1,7-naphthyridine]
[1]
  IC50: 18 nM
[2]
  IC50: 36 nM
[3]
  IC50: 51 nM
[4]
  IC50: 55 nM
[5]
  IC50: 490 nM
C4-2B
  IC50: 50 nM
HCC70
  IC50: 27 nM
HT29
  IC50: 160 nM
U-87MG
  IC50: 64 nM
M059J
  IC50: 80 nM
NCI-H2030
  IC50: 160 nM
NCI-H23
  IC50: 18 nM
A549
  IC50: 29 nM
SU-DHL-8
  IC50: 9 nM
TMD-8
  IC50: 179 nM
REC-1
  IC50: 10 nM
Jeko-1
  IC50: 18 nM
GRANTA-519
  IC50: 30 nM
JVM-2
  IC50: 32 nM
HT-144
  IC50: 40 nM
SK-OV-3
  IC50: 33 nM
BxPC3
  IC50: 44 nM
AsPc-1
  IC50: 49 nM
MIAPaCa2
  IC50: 380 nM
DLD-1 parental
  IC50: 50 nM
DLD-1 BRCA2 (−/−)
  IC50: 27 nM
[6]
  Max. weight loss (%): −6%
[7]
  Max. weight loss (%): −8%
PC3 xenograft (prostate)
  Max. weight loss (%): −7%
[8]
  Max. weight loss (%): −10%
